We go through one compound from patent US9596855B2, “Small molecule inhibitors of biofilm formation and the novel use of previously identified compounds for inhibition of biofilm formation and applications for drug therapy and medical device coating” (priority 2013, dated 2017).

In one data set the test system is tested strains. In words: bactericidal activity against tested strains. The data set is classed as cell-based. The conditions noted are these: any of the tested strains.
For the next data set, the system named is HeLa cells. The experiment in a line: mammalian cell cytotoxicity. The data set is classed as cell-based. To be noted: up to the highest tested concentration (250 μM).
Data set [1] relates to V. cholerae. The experiment in a line: image-based biofilm inhibition screening platform. The data set is classed as cell-based. As to the method:
In the present study, a 1,248-member prefractionated marine natural product library was evaluated for biofilm inhibitory activity using a recently-developed image-based screening platform. […] Prefraction 1671D is a semi-purified mixture that contains mixture of several individual compounds. Prefraction 1671D was therefore subjected to one-compound-one-well ‘peak library’ fractionation using the inventors' standard protocol that automatically separates the constituents of prefractions of interest based on HPLC retention times, and connects specific constituents to observed biological activities through secondary screening.
This activity was coupled with a striking biofilm macrocolony phenotype, providing strong justification for purification and full structural characterization of the active constituent. It was from 1671D that “compound 5” was isolated.

Data set [2] relates to V. cholerae. In words: co-dosing of biofilm inhibitor with sub-MIC and sub-BIC antibiotics, image-based screen.

For the compound `C=C1Oc2cc(OC)cc(C(=O)OC)c2NC1=O` [Compound 5], the bactericidal activity entry in the data set with tested strains is given as “no bactericidal activity”. For the same compound, in the data set on HeLa cells, the mammalian cell cytotoxicity entry is “no mammalian cell cytotoxicity”. The IC50 (as a rule, the concentration at which inhibition is half-maximal) in the data set on V. cholerae [1] (Vibrio cholerae, read-out: biofilm inhibitory activity (IC50)) came to 60.1 µM. In addition, the “biofilm phenotype (epifluorescence and confocal images)” value with V. cholerae [1] (on treatment with compound) is “micro-colonies initially become less organized and less tightly packed”. Also, the biofilm-clearing efficacy entry in the data set with V. cholerae [2] (with sub-BIC concentrations of ceftazidime) and in the data set on V. cholerae [2] (with sub-BIC concentrations of ciprofloxacin) was “improve” in each case.
